# Laboratory results: US20250381307A1, “RETRO-AAV AND USE IN TREATING NEURODEGENERATIVE DISEASES” (priority 2023, published 2025)
# Columns and labels:
# [1] = biological target: T1, rM3Ds (Rattus norvegicus, UniProt P08483, A177S/A238G/A489L/DEL261-437/DEL441-478/E258S/I253V/I483M/INS256[…]/K178L/K182A/K255R/K484R/K486H/L173F/L482A/M480V/R171S/R176Q/R179M/S481M/T174R/T181R/T257A/Y148C); experiment: Slice whole-cell recordings of rM3Ds-transduced MSNs; format: cell-based, mice; conditions: AAV8R12-G88P7-rM3Ds-2A-EYFP
# T1 construct: rM3Ds; 2A-EYFP (C); host or cells: AAV8R12-transduced striatal D1-MSNs of mice and cynomolgus macaques (in vivo and acute slices)
# Source text: Mice from different groups were anesthetized with […] isoflurane, and then decapitated. The brain was quickly extracted and placed in ice-cold N-methyl-D-glucamine (NMDG) cutting solution containing (in mM): 92 NMDG, 2.5 KCl, 25 NaHCO3, 1.25 NaH2PO4, 4.5 D-Glucose, 20 HEPES, 5 L-ascorbic acid, 3 Na-pyruvate, 2 Thiourea, 10 MgSO4, 0.5 CaCl2). The pH was adjusted to 7.2±0.1 using HCl and the osmolarity was adjusted to 305±5 mosmol/L using NMDG. The solution was bubbled with 95% O2/5% CO2 prior to use. Coronal striatum slices were cut in 250-[…]m thickness with a vibratome slicer (Leica, VT1200 S), and then incubated in artificial cerebrospinal fluid (aCSF) saturated with 95% O2/5% CO2 for at least 45 min at 37° C. before recording. The aCSF contains (in mM) 125 NaCl, 1.25 KCl, 25 NaHCO3, 1.25 KH2PO4, 25 D-Glucose, 2 CaCl2) and 1 MgCl2, supplemented with 2 mM Na-pyruvate, 3 mM Myo-inositol and 0.4 mM L-ascorbic acid.
# The acute striatum slice was transferred to the recording chamber with a constant perfusion of oxygenized aCSF at the rate of 3 ml/min. Neurons were visualized using an upright microscope (Olympus, BX-51) with a 40×water immersion objective at room temperature (˜25° C.). […] Neurons were quickly visualized under fluorescence microscope and then patch clamp were achieved under infrared light illumination and CCD camera. […]
# [2] = biological target: T1, rM3Ds; experiment: Rotation behavior and nigral c-Fos in mice after unilateral nigral AAV8R12-G88P7-rM3Ds-2A-EYFP and CNO; format: in vivo; conditions: for contraversive rotations (FIG. 7A): AAV8R12-G88P7-rM3Ds-2A-EYFP, n=8; for rotation behavior (FIG. 7C): control vector AAV8R12-G88P7-EYFP, n=5
# Method: Mice were anesthetized with sodium pentobarbital (Nembutal; 80 mg/kg, i.p.), and then placed into a stereotaxic device (KOPF). Eye cream was applied on both corneas to avoid dehydration. The skull above the targeted areas was thinned with a dental drill and carefully removed. Injections were conducted with a 10 μL syringe connected to a 33-Gauge needle (Neuros; Hamilton), using a microsyringe pump (Legato 130, KD Scientific). A total volume of 200 nL virus was injected into the SNr at a speed of 20 nL/min. The coordinates for the SNr were 3.4 mm posterior, 1.3 mm lateral, 4.8 mm ventral to the bregma.
# Mice that were used in the behavioral experiments were then implanted with guide cannulas (KOPF) unilaterally aiming at the dorsomedial striatum (0.5 mm anterior, 1.5 mm lateral, 3.5 mm ventral to the bregma). The cannulas were fixed to the skull with dental cement. Stainless steel obturators were inserted into the guide cannulas and were replaced every other day to maintain the patency until infusions were made. Mice were allowed to recover from the surgery for at least 3 weeks before further studies.
# Mice were individually handled for 10-20 seconds per day for at least 5 days to habituate them to the experimenter. The open field test was conducted in a test apparatus (50 cm×50 cm×50 cm) with an HD digital camera (Sony) positioned above the arena. On day one, mice were habituated to the apparatus for 10 minutes. On day 2, mice were administrated saline (0.1 mL i.p. or 200 nL intracranially [i.e.] through the guide cannulas). On day 3, mice were administrated with Clozapine-N-oxide (CNO, Hello Bio, HB1807; 0.3 mg/kg i.p. or 200 nL at 100 μM i.e.). All behavioral tests were conducted 30 minutes after injection. During the test, mice were allowed to freely explore the apparatus for 10 minutes. The behavioral data were analyzed with ANY-maze software (Stoelting Co.).
# T1 sequence (P08483 other isoform, or with tags, fused parts or gaps with the stated changes): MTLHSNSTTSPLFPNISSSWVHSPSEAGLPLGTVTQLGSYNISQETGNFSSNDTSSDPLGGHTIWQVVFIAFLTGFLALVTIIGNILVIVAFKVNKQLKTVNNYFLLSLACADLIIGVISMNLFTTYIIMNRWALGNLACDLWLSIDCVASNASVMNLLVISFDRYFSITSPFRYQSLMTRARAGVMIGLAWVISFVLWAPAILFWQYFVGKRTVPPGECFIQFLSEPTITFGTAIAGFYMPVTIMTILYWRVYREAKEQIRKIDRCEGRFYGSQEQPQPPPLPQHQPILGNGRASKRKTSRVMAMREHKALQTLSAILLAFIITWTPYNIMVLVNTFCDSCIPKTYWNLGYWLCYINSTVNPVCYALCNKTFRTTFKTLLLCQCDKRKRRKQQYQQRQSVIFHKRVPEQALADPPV
smiles,measurement,setting,value
"C[N+]1([O-])CCN(C2=Nc3cc(Cl)ccc3Nc3ccccc32)CC1 [CNO, clozapine N-oxide]",excitability of D1-MSNs in parkinsonian mice,"[1]; 6-OHDA mice, not with AAV8R12-G88P7-EYFP",increased excitability
same,excitability of labeled striatal MSNs,"[1]; CNO 10 μM, no effect on basal firing rate or resting membrane potential",enhancement in the excitability
same,rotations 12 months after viral infection,"[2]; CNO i.p., 12 months after nigral AAV8R12-G88P7-rM3Ds-2A-EYFP",consistently elevated contraversive rotations
same,contraversive rotations (FIG. 7A),"[2]; CNO i.p., saline 45.95±4.972",80.05±5.168
same,rotation behavior (FIG. 7C),"[2]; CNO i.p., saline 48.68±7.203",46.88±7.497
same,contraversive rotations (FIG. 7A),"[2]; CNO intracranial, saline 58.31±4.742",80.77±4.187
same,rotation behavior (FIG. 7C),"[2]; CNO intracranial, saline 41.11±12.73",34.55±7.536
same,c-Fos+ cells in the SNr,"[2]; CNO intraperitoneal, rM3Ds",didn't increase the number of c-Fos+ cells in the SNr
